The nature of data set [1]: Stability of reconstituted solution of VAS203 in 50 mL PP syringe at room temperature. It counts as physicochemical. The following applies: for Further related substances, each / Further related substances, total / Purity (HPLC) (6R)-4-Amino-5,6,7,8-tetrahydro-L-biopterin / Purity (HPLC) (6S)-4-Amino-5,6,7,8-tetrahydro-L-biopterin / Related substances (HPLC) A: 4-Amino-7,8-dihydro-L-biopterin / Related substances (HPLC) B: Σ (6R)- and (6S)-5,6,7,8-Tetrahydro-L-biopterin / Related substances (HPLC) C: Σ 1-[(6R)- and (6S)-2,4-Diamino-5,6,7,8-tetrahydropteridin-6-yl]propanol / Reconstituted Solution pH / Assay (HPLC) (calculated on anhydrous and chloride-free basis): PP syringe; for Reconstituted Solution pH / Assay (HPLC) (calculated on anhydrous and chloride-free basis): reconstituted in 50 mL WFI; for Assay (HPLC) (calculated on anhydrous and chloride-free basis): day-light. The protocol: A stability study at room temperature was carried out for the drug substance VAS203 to test for any degradation of the reconstituted solution in transparent 50 mL polypropylene (PP) syringes which are used in clinical studies. During stability testing the PP syringes were exposed to normal day-light. Solution content, purity, related substances and pH were monitored for 48 hours (initial, 6, 24, 48 hours after preparation).

The nature of data set [2]: Stability of VAS203 dissolved in solution buffer at pH 7.4. In kind it is physicochemical. The following applies: oxidises to 4-Amino-7,8-dihydro-L-biopterin and 4-Amino-L-biopterin. The protocol: At a pH of 7.4 4-Amino-(6R,S)-5,6,7,8-tetrahydro-L-biopterin dihydrochloride dihydrate (VAS203) dissolved in solution buffer is very unstable and oxidises in its two metabolites 4-Amino-7,8-dihydro-L-biopterin and 4-Amino-L-biopterin. Therefore, it is important that the VAS203 solution is prepared with degassed buffer and after preparation of the VAS203 solution the lyophilisation should be started without delay.

Data set [3] concerns experimental TBI. The settings on record: literature: WO 2004/084906, Terpolilli et al. 2009; cited from earlier work.

Counter-ions that a name gives are not always drawn.

Turning to `CC(O)C(O)C1CNc2nc(N)nc(N)c2N1` [VAS203, 4-Amino-(6R,S)-5,6,7,8-tetrahydro-L-biopterin dihydrochloride dihydrate], in data set [1] (50 mL PP syringe, room temperature, exposed to normal day-light), the “Period over which reconstituted solution is stable” value came to 48 h. Further, in data set [1] (room temperature, 0 hours), the “Further related substances, each” value came to 0.2 % area; the “Further related substances, total” value is recorded as 0.5 % area; the “Purity (HPLC) (6R)-4-Amino-5,6,7,8-tetrahydro-L-biopterin” value amounted to 55.5 % area; the “Purity (HPLC) (6S)-4-Amino-5,6,7,8-tetrahydro-L-biopterin” value is reported as 39.0 % area. In addition, in data set [1] (room temperature, 0 hours), the “Related substances (HPLC) A: 4-Amino-7,8-dihydro-L-biopterin” value was 3.3 % area; the “Related substances (HPLC) B: Σ (6R)- and (6S)-5,6,7,8-Tetrahydro-L-biopterin” value (from here on “Related substances (HPLC) B: Σ”) was found to be 0.6 % area; the “Related substances (HPLC) C: Σ 1-[(6R)- and (6S)-2,4-Diamino-5,6,7,8-tetrahydropteridin-6-yl]propanol” value (“Related substances (HPLC) C” below) turned out to be 1.5 % area; the “Reconstituted Solution pH” value was 7.1. Further, the “Assay (HPLC) (calculated on anhydrous and chloride-free basis)” value in data set [1] (room temperature, 0 hours) is listed as 615 mg. For the same compound, in data set [1] (room temperature, 6 hours), the “Further related substances, each” value is given as 0.2 % area; the “Further related substances, total” value amounted to 0.6 % area; the “Purity (HPLC) (6R)-4-Amino-5,6,7,8-tetrahydro-L-biopterin” value was determined as 55.4 % area; the “Purity (HPLC) (6S)-4-Amino-5,6,7,8-tetrahydro-L-biopterin” value amounted to 38.5 % area. In data set [1] (room temperature, 6 hours), the “Related substances (HPLC) A: 4-Amino-7,8-dihydro-L-biopterin” value came out at 3.8 % area; the “Related substances (HPLC) B: Σ” value is 0.6 % area; the “Related substances (HPLC) C” value is reported as 1.6 % area; the “Assay (HPLC) (calculated on anhydrous and chloride-free basis)” value is 610 mg. Moreover, in data set [1] (room temperature, 24 hours), the “Further related substances, each” value came out at 0.2 % area; the “Further related substances, total” value worked out at 0.6 % area; the “Purity (HPLC) (6R)-4-Amino-5,6,7,8-tetrahydro-L-biopterin” value is 55.4 % area; the “Purity (HPLC) (6S)-4-Amino-5,6,7,8-tetrahydro-L-biopterin” value came out at 38.4 % area. In data set [1] (room temperature, 24 hours), the “Related substances (HPLC) A: 4-Amino-7,8-dihydro-L-biopterin” value is 3.8 % area; the “Related substances (HPLC) B: Σ” value is listed as 0.6 % area; the “Related substances (HPLC) C” value is on record as 1.5 % area; the “Reconstituted Solution pH” value is 7.1. Further, the “Assay (HPLC) (calculated on anhydrous and chloride-free basis)” value in data set [1] (room temperature, 24 hours) is 621 mg. Further, in data set [1] (room temperature, 48 hours), the “Further related substances, each” value is given as 0.1 % area; the “Further related substances, total” value is given as 0.4 % area; the “Purity (HPLC) (6R)-4-Amino-5,6,7,8-tetrahydro-L-biopterin” value is reported as 55.5 % area; the “Purity (HPLC) (6S)-4-Amino-5,6,7,8-tetrahydro-L-biopterin” value came to 38.1 % area. In addition, in data set [1] (room temperature, 48 hours), the “Related substances (HPLC) A: 4-Amino-7,8-dihydro-L-biopterin” value is 4.1 % area; the “Related substances (HPLC) B: Σ” value is listed as 0.6 % area; the “Related substances (HPLC) C” value amounted to 1.5 % area; the “Reconstituted Solution pH” value was 7.1. The “Assay (HPLC) (calculated on anhydrous and chloride-free basis)” value in data set [1] (room temperature, 48 hours) is 626 mg. Further, the Light sensitivity result in data set [1] (reconstituted solution, normal day-light, up to 48 hours) is “not observed”. The Degradation products formed result in data set [1] (reconstituted solution, room temperature, 48 hours) is “No degradation products were formed”. Further, the “Use-by date after preparation of the solution” value in data set [1] (reduced to avoid microbiological contamination) was 27 h. The “Stability in solution buffer” value in data set [2] is “very unstable”.
Turning to `CC(O)C(O)C1=Nc2c(N)nc(N)nc2NC1` [4-Amino-7,8-dihydro-L-biopterin], the “Efficacy in experimental TBI” value in data set [3] is reported as “effective”.
Consider `CC(O)C(O)C1CNc2nc(N)nc(N)c2N1` [4-Amino-5,6,7,8-tetrahydro-L-biopterin], for which the “Efficacy in experimental TBI” value in data set [3] is “effective”.

(Values after patent publication US12458644B2, “Process for preparing solutions comprising biopterin derivatives” (VASOPHARM GMBH, priority 2014, dated 2025).)
